For one assay, the system named is KCL22. The assay is described as follows: Cytotoxicity propidium iodide assay, KCL22. The format is cell-based. To be noted: Homo sapiens, KCL-22; KCL22 (CML), 48 hours treatment; read-out: IC50 Values in μM, C6f. As to the method:
The assay was designed as in the reference, Anticancer Drugs, 2002, 13, 1-8, the disclosure of which is incorporated herein by reference for the teaching of the assay.
Cells from cell lines (ATCC) as mentioned in the table given below were seeded at a density of 3000 cells/well in a white opaque 96-well plate. Following incubation at 37° C./5% CO2 for a period of 18-24 hours, the cells were treated with various concentrations (stock solution was prepared in DMSO and subsequent dilutions were made in media as per ATCC guidelines) of the compounds of the present invention for a period of 48 hours. At the end of treatment, the culture medium was discarded, the cells were washed with 1×PBS and 200 μL of […] propidium iodide was added to each well. […] For analysis, the plates were warmed to RT, allowed to thaw and were read in PoleStar fluorimeter with the fluorescence setting. The percentage of viable cells in the non-treated set of wells was considered to be 100 and the percentage viability following treatment was calculated accordingly. IC50 values were calculated from graphs plotted using these percentages. IC50 values for certain compounds of present invention are depicted in Table 1 and % Inhibition of certain compounds of present invention are depicted in Table 2.

Another assay deals with T1, PI3Kα (Homo sapiens, UniProt P42336).
T1 construct: purchased Upstate Millipore
Description: p110α radioactive lipid kinase assay (PI3Kα). To be noted: 25 μM ATP. The format is biochemical. The procedure: Protocol for Kinase Assay (PI3Kα)
p110α Radioactive Lipid Kinase Assay
The assay was designed as in the reference, Journal of Biomolecular Screening, 2002, Vol. 7, No. 5, 441-450, the disclosure of which is incorporated herein by reference for the teaching of the assay.
The p110α biochemical assay was performed using a radioactive assay measuring the incorporation of ^32P into the p110α substrate, phosphatidylinsoitol (PI). For the generation of IC50 curves, the reaction was performed in a 96-well MaxiSorp plates. Plates were pre-coated with 4 μg/well of a 1:1 ratio of phosphatidylinositol (PI: Avanti #840042C) and phosphatidylserine (PS: Avanti #840032C) diluted in CHCl3. Equal amount of p110α (Upstate Millipore) protein was added to each well, containing 25 μL reaction buffer (50 mM MOPSO pH7.0, 100 mM NaCl, 4 mM MgCl2, 0.1% (w/v) BSA) whereas, for negative control, only reaction buffer was added. Compounds of the present invention dissolved in DMSO were treated at nine-point dose responses (0.3, 1, 3, 6, 10, 30, 60, 100 and 300 nM). Reactions were initiated by the addition of 25 μM ATP solution (Sigma, USA) containing 50 μCi/mL [γ-^32P]-ATP and incubated at RT for 2 hours with gentle shaking. […] The radioactivity incorporated into the immobilized PI substrate was determined with Top Count (Perkin Elmer). Inhibition was calculated using the following equation: […]

The next assay has as its system arthritic DBA/1 J mice. The assay is described as follows: Collagen-induced arthritis. In kind it is in vivo, mouse. To be noted: 1 mg/kg, p.o., twice daily. As to the method: Protocol for Collagen-Induced Arthritis
Induction of Collagen-Induced Arthritis and Treatment with Compound of Example 19
All animal experiments were carried out in accordance with the guidelines of Committee for the Purpose of Control and Supervision of Experiments on Animals (CPCSEA). All animal experiments were approved by Institutional Animal Ethics Committee (IAEC) of Piramal Life Sciences Limited, Mumbai, India. Collagen-induced arthritis was induced in DBA/1 J mice as described in J. Exp. Med., 1985, 162, 637-46. Inbred male DBA/1 J mice (8-10 weeks of age, Jackson Laboratories, Bar Harbor, Me.) were immunized intradermally at the base of the tail with 200 μg type II collagen emulsified in Freund's Complete Adjuvant (FCA) on day 0. On day 17, immunized mice were randomized into different groups based on their body weight. From day 17 onwards, (i) one group of mice started receiving administration of compound of Example 19 (1 mg/kg, p.o., twice daily), (ii) a second group of mice started receiving administration of vehicle (0.5% CMC, p.o., twice daily), and (iii) a third group of mice started receiving administration of Enbrel (3 mg/kg, s.c., once daily). On day 21, all mice were boosted with 200 μg type II collagen emulsified in FCA. The mice (8 per treatment group) were monitored daily (from day 17 onwards) for the development and severity of arthritis using articular index and paw thickness as parameters. Articular index scoring was performed employing the following criteria—Fore limbs (Scale 0-3): 0, no redness or swelling; 1, redness but no swelling; 2, redness and swelling of the paw; 3, redness and severe swelling of the paw. […] Swelling of each of the paws of mice was measured with constant-tension, spring-loaded calipers (Mitutoyo, Aurora, Ill.). […]
Treatment continued daily until day 36 of the study, and the body weight of the animal along with the severity of inflammation for all 4 paws was monitored daily. […]

T1 sequence (P42336 whole entry, species assumed): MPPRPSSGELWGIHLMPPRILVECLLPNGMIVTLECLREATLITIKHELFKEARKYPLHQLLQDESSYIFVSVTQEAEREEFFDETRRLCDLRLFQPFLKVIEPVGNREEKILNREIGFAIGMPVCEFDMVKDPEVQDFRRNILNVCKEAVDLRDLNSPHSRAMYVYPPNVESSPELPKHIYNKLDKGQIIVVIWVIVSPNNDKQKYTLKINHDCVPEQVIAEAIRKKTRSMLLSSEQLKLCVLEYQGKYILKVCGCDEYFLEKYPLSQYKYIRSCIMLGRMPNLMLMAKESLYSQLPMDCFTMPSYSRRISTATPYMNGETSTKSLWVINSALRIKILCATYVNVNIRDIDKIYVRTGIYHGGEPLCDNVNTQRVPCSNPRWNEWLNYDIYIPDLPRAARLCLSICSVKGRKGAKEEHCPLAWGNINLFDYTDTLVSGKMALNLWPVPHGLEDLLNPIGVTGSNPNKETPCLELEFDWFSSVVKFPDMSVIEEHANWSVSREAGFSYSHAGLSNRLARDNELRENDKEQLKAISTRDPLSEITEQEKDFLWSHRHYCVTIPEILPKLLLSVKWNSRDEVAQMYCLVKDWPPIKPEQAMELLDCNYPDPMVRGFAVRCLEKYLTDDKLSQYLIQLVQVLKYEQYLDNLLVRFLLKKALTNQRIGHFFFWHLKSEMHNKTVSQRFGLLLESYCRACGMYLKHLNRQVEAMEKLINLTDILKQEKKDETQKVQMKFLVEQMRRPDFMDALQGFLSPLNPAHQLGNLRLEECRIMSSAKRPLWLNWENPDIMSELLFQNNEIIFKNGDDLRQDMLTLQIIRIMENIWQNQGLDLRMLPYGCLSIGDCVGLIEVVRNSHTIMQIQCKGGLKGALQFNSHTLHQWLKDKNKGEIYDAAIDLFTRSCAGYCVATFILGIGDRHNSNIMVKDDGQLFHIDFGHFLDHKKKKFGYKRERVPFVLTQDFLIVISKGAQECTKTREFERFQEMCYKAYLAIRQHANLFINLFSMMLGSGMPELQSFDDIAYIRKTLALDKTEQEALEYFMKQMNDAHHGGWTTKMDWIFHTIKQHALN
T1 sequence (P27986 whole entry partner, species assumed): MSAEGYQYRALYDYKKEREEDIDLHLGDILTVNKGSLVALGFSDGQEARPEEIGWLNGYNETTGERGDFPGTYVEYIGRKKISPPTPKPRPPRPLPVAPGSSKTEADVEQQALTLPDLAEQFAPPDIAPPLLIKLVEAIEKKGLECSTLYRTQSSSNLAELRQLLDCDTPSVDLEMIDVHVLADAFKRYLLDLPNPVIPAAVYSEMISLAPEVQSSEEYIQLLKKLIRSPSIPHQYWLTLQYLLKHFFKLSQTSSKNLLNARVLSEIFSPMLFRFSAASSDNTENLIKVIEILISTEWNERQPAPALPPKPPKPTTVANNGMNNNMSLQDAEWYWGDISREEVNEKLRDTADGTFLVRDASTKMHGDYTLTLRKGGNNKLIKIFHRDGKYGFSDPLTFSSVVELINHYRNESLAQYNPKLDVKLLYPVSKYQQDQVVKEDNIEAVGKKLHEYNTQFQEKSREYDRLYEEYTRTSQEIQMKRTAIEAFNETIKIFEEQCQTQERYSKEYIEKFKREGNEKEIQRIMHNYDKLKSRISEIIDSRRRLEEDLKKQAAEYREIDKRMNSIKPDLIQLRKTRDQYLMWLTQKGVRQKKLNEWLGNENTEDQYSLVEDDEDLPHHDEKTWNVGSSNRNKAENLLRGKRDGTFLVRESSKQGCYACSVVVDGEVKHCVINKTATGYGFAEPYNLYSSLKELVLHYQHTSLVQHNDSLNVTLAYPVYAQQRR

Take `Cn1c(=O)n(-c2ccc(C(C)(C)C#N)nc2)c2c3cc(-c4cnc(N)c(C(F)(F)F)c4)ccc3ncc21` [Example 3, 2-(5-(8-(6-Amino-5-(trifluoromethyl)pyridin-3-yl)-3-methyl-2-oxo-2,3-dihydro-1H-imidazo[4,5-c]quinolin-1-yl)pyridin-2-yl)-2-methylpropanenitrile]: in the assay with KCL22, the IC50 (commonly the midpoint of a concentration-inhibition curve) is 2 µM.

Take `CS(=O)(=O)O.Cn1c(=O)n(-c2ccc(C(C)(C)C#N)nc2)c2c3cc(-c4cnc(N)c(C(F)(F)F)c4)ccc3ncc21` [Example 3a, 8-(6-Amino-5-(trifluoromethyl)pyridin-3-yl)-1-(6-(2-cyanopropan-2-yl)pyridin-3-yl)-3-methyl-2-oxo-2,3-dihydro-1H-imidazo[4,5-c]quinolin-5-ium methanesulfonate]: at PI3Kα, the IC50 came to 1.37 nM.

Consider `COc1ccc(-n2c(=O)n(C)c3cnc4ccc(-c5cnc(N)c(C(F)(F)F)c5)cc4c32)cn1` [Example 19, 8-(6-Amino-5-(trifluoromethyl)pyridin-3-yl)-1-(6-methoxypyridin-3-yl)-3-methyl-1H-imidazo[4,5-c]quinolin-2(3H)-one], for which the IC50 at PI3Kα was 2.89 nM. For the same molecule, in the assay on arthritic DBA/1 J mice (day 17 to day 36), the “Bone erosion and joint space narrowing” value is “distinctly protects against bone erosion and joint space narrowing”; the “Joint destruction, hyperproliferative pannus formation and infiltration of inflammatory cells” value is “prominently diminishes joint destruction, hyperproliferative pannus formation and infiltration of inflammatory cells”. The “Disease-associated increase in articular index and paw thickness” value with arthritic DBA/1 J mice (day 17 to day 36, FIGS. 4a and 4b) was “inhibits disease-associated increase in articular index and paw thickness”.

Source of the values: patent publication US20130310374A1, “Substituted Imidazoquinoline Derivatives” (PIRAMAL ENTERPRISES LIMITED`, priority 2010, published 2013).
